In US20140205681A1, “HYDROGEN-BOND SURROGATE PEPTIDES AND PEPTIDOMIMETICS FOR p53 REACTIVATION” (New York University, priority 2013, published 2014):

Key:
UMSCC47 cells [1] = assay: ALDH (ALDEFLUOR) and CD44 (FACS) cancer initiating cell markers; format: cell-based, human
Procedure: Cells were assessed for ALDH activity using the ALDEFLUOR kit according to the manufacturer's protocol (Stem Cell Technologies, British Columbia, Canada). Cells were suspended in ALDEFLUOR assay buffer containing ALDH substrate (bidipy-aminoacetaldehyde, 1 μM per 1×10^6 cells) and incubated for 40 minutes at 37° C. For each experiment, a sample of cells was incubated with 50 mM of diethylaminobenzaldehyde (DEAB), a specific ALDH inhibitor, to serve as the negative control. For CD44 expression, cells were harvested and resuspened in incubation buffer with PE-CD44 antibody (Abcam) or mouse PE-IgG (Abcam) for 50 minutes on ice. Suspensions were centrifuged at 300×g for 5 minutes at 4° C. and resuspend in 0.5 mL of 1% paraformaldehyde solution for analysis. Fluorescence activated cell sorting (FACS) analyses were performed using BD FACS Calibur at The Ohio State University Comprehensive Cancer Center Analytical Cytometry Core.

HPV16 E6-p300 = biological target: T1, HPV16 E6-p300 (Homo sapiens, UniProt Q09472); assay: Immunoprecipitation of HPV16 E6-p300 association; format: cell-based; details: exogenous CH1; UMSCC47 and UPCI:SCC090 cells
T1 construct: Cell lysates were extracted, immunoprecipitated with anti-p300 antibody, and immunoblotted with anti-E6 antibody; endogenous in cells; host or cells: UMSCC47 (HPV16-positive HNSCC)
T1 sequence (Q09472 whole entry): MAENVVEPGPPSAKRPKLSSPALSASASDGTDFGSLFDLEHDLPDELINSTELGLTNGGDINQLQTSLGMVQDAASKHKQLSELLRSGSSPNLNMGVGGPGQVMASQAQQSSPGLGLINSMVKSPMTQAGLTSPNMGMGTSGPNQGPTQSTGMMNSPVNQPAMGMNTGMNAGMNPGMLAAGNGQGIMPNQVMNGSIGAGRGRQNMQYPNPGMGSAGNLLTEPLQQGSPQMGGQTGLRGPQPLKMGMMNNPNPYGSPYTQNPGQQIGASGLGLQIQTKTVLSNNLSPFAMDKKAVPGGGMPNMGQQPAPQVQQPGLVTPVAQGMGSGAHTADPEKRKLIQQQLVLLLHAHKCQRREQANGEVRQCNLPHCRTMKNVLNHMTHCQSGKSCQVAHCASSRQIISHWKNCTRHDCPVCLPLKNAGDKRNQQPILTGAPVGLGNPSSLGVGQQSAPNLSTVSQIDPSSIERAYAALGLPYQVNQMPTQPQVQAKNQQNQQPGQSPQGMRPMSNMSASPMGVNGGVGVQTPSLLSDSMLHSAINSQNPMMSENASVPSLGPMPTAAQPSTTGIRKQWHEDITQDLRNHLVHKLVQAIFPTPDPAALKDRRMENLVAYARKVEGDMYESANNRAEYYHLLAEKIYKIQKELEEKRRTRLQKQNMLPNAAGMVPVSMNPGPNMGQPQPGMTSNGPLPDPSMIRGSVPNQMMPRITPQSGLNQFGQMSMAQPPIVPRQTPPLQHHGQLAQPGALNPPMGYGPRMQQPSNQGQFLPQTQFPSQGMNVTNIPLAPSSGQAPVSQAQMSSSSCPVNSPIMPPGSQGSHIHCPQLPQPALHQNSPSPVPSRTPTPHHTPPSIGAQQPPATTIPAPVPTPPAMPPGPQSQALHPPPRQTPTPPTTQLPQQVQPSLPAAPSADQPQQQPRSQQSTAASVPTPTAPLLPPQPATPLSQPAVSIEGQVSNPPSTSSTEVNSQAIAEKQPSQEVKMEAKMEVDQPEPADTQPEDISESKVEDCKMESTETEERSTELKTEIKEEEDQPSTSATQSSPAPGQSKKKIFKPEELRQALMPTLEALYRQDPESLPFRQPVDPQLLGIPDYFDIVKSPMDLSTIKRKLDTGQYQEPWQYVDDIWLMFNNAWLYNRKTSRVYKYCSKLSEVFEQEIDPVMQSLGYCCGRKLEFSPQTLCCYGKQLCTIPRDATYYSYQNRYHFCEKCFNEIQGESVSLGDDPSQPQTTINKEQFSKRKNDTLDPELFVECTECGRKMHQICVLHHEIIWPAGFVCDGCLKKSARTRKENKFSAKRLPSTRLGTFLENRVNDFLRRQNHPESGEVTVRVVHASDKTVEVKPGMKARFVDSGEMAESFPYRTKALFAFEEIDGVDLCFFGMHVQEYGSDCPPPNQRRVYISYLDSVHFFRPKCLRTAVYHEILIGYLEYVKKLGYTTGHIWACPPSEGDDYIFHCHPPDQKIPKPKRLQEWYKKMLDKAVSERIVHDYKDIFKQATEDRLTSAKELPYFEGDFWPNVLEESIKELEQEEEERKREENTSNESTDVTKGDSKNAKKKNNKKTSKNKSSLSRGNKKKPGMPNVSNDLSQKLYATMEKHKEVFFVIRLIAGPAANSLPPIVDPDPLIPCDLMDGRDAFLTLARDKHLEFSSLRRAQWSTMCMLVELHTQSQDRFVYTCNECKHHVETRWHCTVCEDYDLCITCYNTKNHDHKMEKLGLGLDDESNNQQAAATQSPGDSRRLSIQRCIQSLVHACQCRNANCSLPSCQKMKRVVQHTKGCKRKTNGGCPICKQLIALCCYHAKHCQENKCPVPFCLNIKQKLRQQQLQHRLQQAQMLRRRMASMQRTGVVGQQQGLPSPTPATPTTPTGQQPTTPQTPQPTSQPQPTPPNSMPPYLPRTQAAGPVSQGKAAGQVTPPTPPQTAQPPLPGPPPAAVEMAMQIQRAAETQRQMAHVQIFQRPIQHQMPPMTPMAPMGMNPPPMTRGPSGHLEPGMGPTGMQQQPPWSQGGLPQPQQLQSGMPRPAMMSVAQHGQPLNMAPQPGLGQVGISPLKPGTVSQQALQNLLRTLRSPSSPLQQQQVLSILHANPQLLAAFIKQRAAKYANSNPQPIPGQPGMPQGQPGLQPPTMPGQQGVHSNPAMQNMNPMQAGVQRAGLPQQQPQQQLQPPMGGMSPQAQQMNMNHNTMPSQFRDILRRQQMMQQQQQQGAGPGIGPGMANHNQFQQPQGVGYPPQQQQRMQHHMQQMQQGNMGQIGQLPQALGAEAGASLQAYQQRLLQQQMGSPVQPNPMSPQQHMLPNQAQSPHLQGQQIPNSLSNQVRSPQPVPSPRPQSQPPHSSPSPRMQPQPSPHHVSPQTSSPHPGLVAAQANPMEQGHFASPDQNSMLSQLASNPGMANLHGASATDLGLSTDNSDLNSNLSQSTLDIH
Procedure: Cells were lysed with NP buffer [50 mM Tris (pH 8.0), 150 mM NaCl, 0.5% deoxycholate, 0.1% SDS, and 1.0% NP-40] containing 1× Protease Inhibitor Cocktail (Roche, Switzerland) at 4° C. with gentle rocking for 15 min. The supernatant was pre-cleared to block nonspecific binding with 50 μL protein A/G Agarose beads (Pierce Biotechnology) that had been pre-washed with NP buffer before use. Equal amounts of anti-E6 antibody (Abcam), anti-p300 antibody (Millipore), or IgG antibody (Cell Signaling) were added to the respective samples. After 4 hours incubation at 4° C., 50 μL pre-washed protein A/G-agarose beads were added to each tube and immunoprecipitation was performed by rocking overnight at 4° C. The immunoprecipitated complexes were washed with NP buffer and then eluted using 2×SDS sample buffer. Eluted sample and 10% of input were resolved by SDS-PAGE for Western blot analysis with anti-E6, anti-p300, or anti-V5 antibodies.

UMSCC47 cells [2] = assay: Tumor incidence and growth in athymic nude mice; format: in vivo
Procedure: After 3 weeks, tumors were measured once a week using a digital caliper and tumor volumes were calculated using the formula d1×d2×d3×0.5236, where “d” represents the three orthogonal diameters. Tumor growth and incidence were monitored for 49 days following tumor cell implantation.

p53 = assay: Western blot of total and acetylated[K382] p53 levels; format: cell-based, human
Procedure: Whole cell lysates were mixed with Laemmli loading buffer, boiled, separated by SDS-PAGE, and transferred to a nitrocellulose membrane. Subsequently, immunoblot analyses were performed using antibodies specific to V5 (Invitrogen), p53 (sc-126, Santa Cruz Biotechnology, Santa Cruz, Calif.), or acetylated[[…]]-p53 (2525, Cell Signaling Technology). The signal was developed using the SuperSignal Western Blotting Kit (Pierce, Rockford, Ill.).

UMSCC74A cells = assay: Apoptosis (Annexin V FACS); format: cell-based, human; details: overexpression of CH1, UMSCC74A cells
Procedure: (§1) Cell proliferation was assessed using the MTT reagent (Roche Molecular Biochemicals, Nutley, N.J.) to detect metabolic active cells. Absorbance was measured at 570 nm in the Spectra Max 190 ELISA reader (Molecular Devices, Sunnyvale, Calif.) after overnight incubation. For clonogenic survival, 200 cells per well were plated in complete growth media and allowed to grow until visible colonies were formed (14 days). Cell colonies were fixed with cold methanol, stained with 0.25% crystal violet in 25% methanol, washed, and air dried. For apoptosis, cells were harvested, washed with cold PBS, and co-stained with Annexin V and propidium iodide according to the manufacturer's protocol (ApoAlert Annexin V-FITC Apoptosis Kit; Clontech). Apoptotic cells were analyzed using BD FACS Calibur (BD Biosciences Corporation, Franklin Lakes, N.J.) at The Ohio State University Comprehensive Cancer Center Analytical Cytometry Core.

UMSCC47 cells [3] = assay: Apoptosis (Annexin V FACS); format: cell-based, human; details: CH1 overexpression
Procedure: as §1

UPCI:SCC090 cells = assay: Apoptosis (Annexin V FACS); format: cell-based, human; details: CH1 overexpression
Procedure: as §1

UMSCC47 cells [4] = assay: Tumorsphere formation; format: cell-based, human; details: overexpression of CH1, UMSCC47 cells
Procedure: Cells were harvested and seeded in a serum-free defined medium consisting of KSF medium supplemented with epidermal growth factor, basic fibroblast growth factor, insulin, and hydrocortisone in low-attachment plates (Corning Incorporated, Corning, N.Y.) for tumorspheres. Tumorsphere formation efficiency was calculated as the number of tumorspheres ([…] in diameter) formed in 7 days divided by the original number of cells seeded. Tumorsphere diameter was measured using NIS-Elements software.

[5] = test system: p300, p53, p21, miR-34a, miR-200c; assay: Quantitative real-time PCR of p300, p53, p21, miR-34a and miR-200c expression; format: cell-based, human
Procedure: Cells were extracted for total RNA using the TRIzol® reagent (Invitrogen) or TaqMan PreAmp Cells-to-CT kit (Applied Biosystems). Expression of p300, p53, p21, miR-34a and miR-200c were determined using the Applied Biosystems 7900HT Fast Real-Time PCR System with validated TaqMan gene expression assays (Applied Biosystems). p53, p300, and p21 expression were normalized to GADPH and miR-34a and miR-200c expression were normalized to RNU44 using the ΔΔCt method.

[6] = CH1 overexpression, UMSCC47 cells
[7] = CH1 overexpressing UMSCC47 and UPCI:SCC090 cells

With “CH1: CH1 domain of p300 ectopically expressed from pcDNA3.1/CH1 in stably transfected HNSCC cells” the “ALDH^high population, reduced by” value (UMSCC47 cells [1]; [6]) was 46%, the “CD44^high population, reduced by” value (UMSCC47 cells [1]; [6]) was 31% and the “CD44 levels (FACS), reduced by” value (UMSCC47 cells [1]; UMSCC47/CH1 vs UMSCC47/empty cells) was 33%. The “association between E6 and p300” value (HPV16 E6-p300) was “reduce the association between E6 and p300”, the tumor incidence (UMSCC47 cells [2]; 3×10^4 UMSCC47/CH1 cells implanted (UMSCC47/empty 50%)) was 0% and the mean tumor volume (UMSCC47 cells [2]; 3×10^5 UMSCC47/CH1 cells implanted (UMSCC47/empty 142 mm^3)) was 67 mm^3. The “tumor incidence vs UMSCC47/empty” value (UMSCC47 cells [2]; 3×10^5 cells implanted in flanks, 49 days) was “the same”, the “acetylated p53” value (p53; [7]) was “increase” and the “total p53” value (p53; [7]) was “accumulation”. The “total and acetylated p53” value (p53; ectopic expression of CH1, HPV-negative UMSCC74A cells) was “increased”, the “apoptosis, increased by” value (UMSCC74A cells) was 95% and the “apoptosis, increased by” value (UMSCC47 cells [3]) was 60%. The “apoptosis, increased by” value (UPCI:SCC090 cells) was 27%, the “tumorsphere diameter, reduced by” value (UMSCC47 cells [4]) was 25% and the “tumorsphere formation efficiency, inhibited by” value (UMSCC47 cells [4]) was 42%. For the same substance, the “miR-34a expression, increased by” value ([5]; UMSCC47/CH1 cells) was 323%, the “miR-200c expression, increased by” value ([5]; UMSCC47/CH1 cells) was 80% and the “p21 expression, increased by” value ([5]; UMSCC47/CH1 cells) was 114%. For the same substance, the “miR-34a expression, increased by” value ([5]; UPCI:SCC090/CH1 cells) was 134%, the “miR-200c expression, increased by” value ([5]; UPCI:SCC090/CH1 cells) was 49% and the “p21 expression, increased by” value ([5]; UPCI:SCC090/CH1 cells) was 39%. The “p53 and p300 expression” value ([5]; overexpression of CH1, UMSCC47 and UPCI:SCC090) was “no effect”.
